Patent US20150038500A1, “PHARMACEUTICAL COMPOSITION FOR PREVENTING AND TREATING OPHTHALMIC DISORDERS” (CATHOLIC UNIVERSITY INDUSTRY-ACADEMIC COOPERATION FOUNDATION, priority 2011, published 2015)
Entries after “also recorded” stand apart in the source; their conditions may differ.

Columns and labels:
[1] = system: human retinal pigment epithelial cell line ARPE-19; assay: Protection efficiency test of retinal pigment epithelial cell (NaIO3-induced apoptosis, MTT assay); format: cell-based; settings: 10 mM NaIO3 then 1 μM compound
Description: A human retinal pigment epithelial cell line ARPE-19 was treated with 10 mM of NaIO3, which is a retinal pigment epithelial cell apoptosis inducing agent, to induce apoptosis and then, it was treated with compound 2 of the invention, that is, (5-(1,1-dioxo-thiomorpholine-4-yl)methyl-2-phenyl-1H-indole-7-yl)-(1-methanesulfonyl-piperidine-4-yl)-amine (Enzo Life Sciences, Inc.) of 1 μM, and the compound treatment group and the non-treatment group were analyzed about their apoptosis degree using an MTT assay and survived cells were comparatively analyzed.

white rat retina explant = assay: Retinal nerve cell protection efficiency test on low oxygen stimulation (retinal explant culture); format: cell-based; settings: hypoxic chamber 30 min, 1 μM compound, cultivated 3 days
Description: A white rat retina was cultivated overnight under explant culture conditions and then, damaged with low oxygen in a hypoxic chamber for 30 min., and cultivated for 3 days with or without being treated with compound 2 of 1 μM, and after the cultivation, the obtained retinal explants were stained and observed using a microscope.

[2] = system: MNU (N-methyl-N-nitrosourea)-induced retinal degeneration models; assay: Efficiency test in MNU-induced retinal degeneration animal model; format: in vivo, Sprague-Dawley rats
Description: The compounds of formula (1) were applied to retinal degeneration which is hard to cure or incurable to evaluate their effects. For this, 3 250-g Sprague-Dawley rats were prepared as a test animal, and injected with 75 mg/kg of N-methyl-N-nitrosourea (MNU) via an intraperitoneal route to induce retinal degeneration, thereby to produce retinal degeneration models. At 30 min. after the retinal degeneration induction, 10 μl of compound 1, that is, (tetrahydropyran-4-ylmethyl)-[2-phenyl-5-(1,1-dioxo-thiomorpholine-4-yl)methyl-1H-indole-7-yl]amine) (KDR Biotech. Co., Ltd., Seoul, Korea) of 50 μM and a physiological saline was injected into the vitreous body of the experimental group and the control group, respectively and then, the same medicines were injected via the same methods after 72 hours of the retinal degeneration induction. To evaluate the healing effects of retinal degeneration in the experimental group and the control group, on the 5th day of the retinal degeneration induction, the animals were anesthetized using 8% chloral hydrate (0.5 mg/kg) and subjected to electroretinogram (ERG) test (UTAS-2000; LKC Technologies, USA), in which scotopic response was recorded as a single flash response having a strength of 0.9 log (cd s) m^−2 or higher. In the meantime, for the histological evaluation of the experimental group and the control group, their eyeballs were extracted from the animals which completed the electroretinogram test on the 5th day of the retinal degeneration induction to produce eyecups, and then they were embedded in wax to produce 5-μm fragments, which were then stained with Hematoxylin & Eosin and observed using a microscope.

corneal wound models = assay: Corneal wound healing effect test (corneal epithelium removal model); format: in vivo, New Zealand white rabbits
Description: It was examined whether the compounds of formula (1) show clinically stable corneal wound healing effects in ophthalmologic surgery such as LRP (laser reversal of presbyopia), LASIK (laser assisted in-situ keratomileusis) and LASEK (laser assisted sub-epithelial keratomileusis). For this, 16 New Zealand white rabbits of 2.0˜2.5 kg were prepared as test animals, anesthetized via intramuscular injection with 15 mg/kg of Zoletil and 5 mg/kg of Xylazine, and then their corneal epitheliums with diameters of 10-12 mm or so were removed using a surgery blade (No. 15) and a rotary epithelial scrubber to produce corneal wound models. At 30 min. after the above-mentioned surgery, two drops of compound 1, that is, (tetrahydropyran-4-ylmethyl)-[2-phenyl-5-(1,1-dioxo-thiomorpholine-4-yl)methyl-1H-indole-7-yl]amine) (KDR Biotech. Co., Ltd., Seoul, Korea) of 50 μM were applied to the experimental group and two drops of a physiological saline were applied to the control group and then, they wore contact lenses, and one drop of the same medicines was applied at 12-hour intervals. To measure a wound area in the experimental group and the control group, their corneal surfaces were stained with Fluorescin using Fluorescin (Haag-Streit International, Switzerland) strips and their diameters were measured using a microcaliper at 24-hour intervals. In the meantime, for the histological evaluation of the experimental group and the control group, they were anesthetized with 25% urethane on the first, second and third day to extract their eyeballs and then, their anterior eye parts including cornea were embedded in wax (Polyscience, USA) to produce 5-μm fragments, which were then stained with Hematoxylin & Eosin and observed using a microscope.

[3] = 10 μl of 50 μM intravitreal at 30 min and 72 hours, ERG on 5th day

SMILES	survived cells (MTT assay) in comparison with control group [1]	outer nuclear layer (ONL) and inner nuclear layer (INL) of retinal explant after low oxygen damage (white rat retina explant)	ERG response higher than the control group [2, 3] [%]	electroretinogram a- and b-wave response compared to control group [2, 3]	retinal tissue fragments stained with Hematoxylin & Eosin (histology) ([2]; 10 μl of 50 μM intravitreal, 5th day, control showed severe retinal degeneration)	time until corneal wound healed (Fluorescin stain) (corneal wound models; 50 μM eye drops at 12-hour intervals, saline control healed on the 4th to 5th day) [days]	healing effect on damaged corneal area (fluorescin staining) in comparison with control group (corneal wound models; 50 μM eye drops, damaged areas right after wound induction and on the third day)	corneal epithelium in Hematoxylin & Eosin stained corneal tissue fragments (corneal wound models; 50 μM eye drops, third day of drug treatment, control epithelium remained damaged)
CS(=O)(=O)N1CCC(Nc2cc(CN3CCS(=O)(=O)CC3)cc3cc(-c4ccccc4)[nH]c23)CC1 [compound 2, (5-(1,1-dioxo-thiomorpholine-4-yl)methyl-2-phenyl-1H-indole-7-yl)-(1-methanesulfonyl-piperidine-4-yl)-amine]	statistically significant (* P<0.05; Student's t-test) survival results	well preserved	–	–	–	–	–	–
O=S1(=O)CCN(Cc2cc(NCC3CCOCC3)c3[nH]c(-c4ccccc4)cc3c2)CC1 [compound 1, (tetrahydropyran-4-ylmethyl)-[2-phenyl-5-(1,1-dioxo-thiomorpholine-4-yl)methyl-1H-indole-7-yl]amine]	–	–	200	increased response in both a- and b-waves	close to a normal tissue; also recorded: well-aligned retinal structure	≤ 3	statistically significant (*** P<0.001) healing effect	completely restored
